Assay results reported in ChEMBL document CHEMBL1201862, “PubChem BioAssay data set” (2004).
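The compound was tested at five concentrations on cells cultured in 96-well plates, with a 48-hour exposure period. GI50 marks 50% less growth.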 The source made the active and inactive calls. Cut-off read from the data, not from the text of the source: active = GI50 up to about 1.1 µM and inactive = higher.

Key:
Assay in all cases: DTP human tumour cell line panel, 48 h
[1] = test system: 786-0
[2] = test system: A498
[3] = test system: A549
[4] = test system: ACHN
[5] = test system: CAKI-1
[6] = test system: CCRF-CEM
[7] = test system: COLO 205
[8] = test system: DLD-1
[9] = test system: DMS-114
[10] = test system: DMS-273
[11] = test system: EKVX
[12] = test system: HCC 2998
[13] = test system: HL-60
[14] = test system: HOP-62
[15] = test system: HOP-92
[16] = test system: HT-29
[17] = test system: IGROV-1
[18] = test system: K562
[19] = test system: KM-20L2
[20] = test system: KM12
[21] = test system: LOX IMVI
[22] = test system: LXFL 529
[23] = test system: M14
[24] = test system: M19-MEL
[25] = test system: MOLT-4
[26] = test system: Malme-3M
[27] = test system: NCI-H23
[28] = test system: NCI-H460
[29] = test system: NCI-H522
[30] = test system: OVCAR-3
[31] = test system: OVCAR-4
[32] = test system: OVCAR-5
[33] = test system: OVCAR-8
[34] = test system: RPMI-8226
[35] = test system: RXF 393
[36] = test system: SF-268
[37] = test system: SF-295
[38] = test system: SF-539
[39] = test system: SK-MEL-28
[40] = test system: SK-MEL-2
[41] = test system: SK-MEL-5
[42] = test system: SK-OV-3
[43] = test system: SN12C
[44] = test system: SNB-19
[45] = test system: SNB-75
[46] = test system: SNB-78
[47] = test system: SW-620
[48] = test system: TK-10
[49] = test system: U-251
[50] = test system: UACC-257
[51] = test system: UACC-62
[52] = test system: UO-31
[53] = test system: XF498
[54] = test system: HCT-116
[55] = test system: HCT-15
[56] = test system: HOP-18
[57] = test system: NCI-H226
[58] = test system: SR
[59] = test system: MCF7
[60] = test system: NCI/ADR-RES
[61] = test system: BT-549
[62] = test system: DU-145
[63] = test system: Hs-578T
[64] = test system: MDA-MB-231
[65] = test system: MDA-MB-435
[66] = test system: MDA-N
[67] = test system: PC-3
[68] = test system: T47D

N#CC1CCCCCCCCCCC(=O)N(CCCl)C1=O (stereo not drawn)
GI50 [1]: > 100 µM (inactive)
GI50 [2]: > 100 µM (inactive)
GI50 [3]: > 100 µM (inactive)
GI50 [4]: > 100 µM (inactive)
GI50 [5]: > 100 µM (inactive)
GI50 [6]: > 100 µM (inactive)
GI50 [7]: > 100 µM (inactive)
GI50 [8]: > 100 µM (inactive)
GI50 [9]: > 100 µM (inactive)
GI50 [10]: > 100 µM (inactive)
GI50 [11]: > 100 µM (inactive)
GI50 [12]: > 100 µM (inactive)
GI50 [13]: > 100 µM (inactive)
GI50 [14]: > 100 µM (inactive)
GI50 [15]: > 100 µM (inactive)
GI50 [16]: > 100 µM (inactive)
GI50 [17]: > 100 µM (inactive)
GI50 [18]: > 100 µM (inactive)
GI50 [19]: > 100 µM (inactive)
GI50 [20]: > 100 µM (inactive)
GI50 [21]: > 100 µM (inactive)
GI50 [22]: > 100 µM (inactive)
GI50 [23]: > 100 µM (inactive)
GI50 [24]: > 100 µM (inactive)
GI50 [25]: > 100 µM (inactive)
GI50 [26]: > 100 µM (inactive)
GI50 [27]: > 100 µM (inactive)
GI50 [28]: > 100 µM (inactive)
GI50 [29]: > 100 µM (inactive)
GI50 [30]: > 100 µM (inactive)
GI50 [31]: > 100 µM (inactive)
GI50 [32]: > 100 µM (inactive)
GI50 [33]: > 100 µM (inactive)
GI50 [34]: > 100 µM (inactive)
GI50 [35]: > 100 µM (inactive)
GI50 [36]: > 100 µM (inactive)
GI50 [37]: > 100 µM (inactive)
GI50 [38]: > 100 µM (inactive)
GI50 [39]: > 100 µM (inactive)
GI50 [40]: > 100 µM (inactive)
GI50 [41]: > 100 µM (inactive)
GI50 [42]: > 100 µM (inactive)
GI50 [43]: > 100 µM (inactive)
GI50 [44]: > 100 µM (inactive)
GI50 [45]: > 100 µM (inactive)
GI50 [46]: > 100 µM (inactive)
GI50 [47]: > 100 µM (inactive)
GI50 [48]: > 100 µM (inactive)
GI50 [49]: > 100 µM (inactive)
GI50 [50]: > 100 µM (inactive)
GI50 [51]: > 100 µM (inactive)
GI50 [52]: > 100 µM (inactive)
GI50 [53]: > 100 µM (inactive)

Cc1ccc(Cl)c2c(=O)cc(-c3ccccc3)[nH]c12
GI50 [1]: > 100 µM (inactive)
GI50 [3]: 46.3 µM (inactive)
GI50 [4]: 42.3 µM (inactive)
GI50 [5]: 84.9 µM (inactive)
GI50 [6]: 52.7 µM (inactive)
GI50 [7]: > 100 µM (inactive)
GI50 [8]: > 100 µM (inactive)
GI50 [10]: 35.6 µM (inactive)
GI50 [54]: 58.5 µM (inactive)
GI50 [55]: 46.2 µM
GI50 [13]: 48.5 µM (inactive)
GI50 [56]: 11.5 µM (inactive)
GI50 [14]: 54.3 µM (inactive)
GI50 [15]: 38.8 µM (inactive)
GI50 [16]: 50.4 µM (inactive)
GI50 [17]: 85.3 µM (inactive)
GI50 [18]: 49.2 µM (inactive)
GI50 [20]: 25.4 µM (inactive)
GI50 [21]: 39.7 µM (inactive)
GI50 [22]: 41.7 µM (inactive)
GI50 [23]: 43 µM (inactive)
GI50 [24]: 68.7 µM (inactive)
GI50 [25]: 32.9 µM (inactive)
GI50 [26]: 51.6 µM (inactive)
GI50 [57]: 48.3 µM (inactive)
GI50 [27]: 59.7 µM (inactive)
GI50 [28]: 36.2 µM (inactive)
GI50 [29]: 63.7 µM (inactive)
GI50 [31]: 55.3 µM (inactive)
GI50 [32]: 71.6 µM (inactive)
GI50 [33]: > 100 µM (inactive)
GI50 [34]: 40.8 µM (inactive)
GI50 [35]: 29.2 µM (inactive)
GI50 [36]: 58.6 µM (inactive)
GI50 [37]: 55.8 µM (inactive)
GI50 [38]: 80.2 µM (inactive)
GI50 [39]: > 100 µM (inactive)
GI50 [40]: 47.9 µM (inactive)
GI50 [41]: 37.8 µM (inactive)
GI50 [42]: > 100 µM (inactive)
GI50 [43]: 56.4 µM (inactive)
GI50 [45]: 28.8 µM (inactive)
GI50 [58]: 25.1 µM (inactive)
GI50 [47]: 67.5 µM (inactive)
GI50 [48]: 70.6 µM (inactive)
GI50 [49]: 88.5 µM (inactive)
GI50 [50]: 58.1 µM (inactive)
GI50 [51]: 42.5 µM (inactive)
GI50 [52]: 37.9 µM (inactive)

Cc1cc(-c2ccc(/N=N/c3ccc4c(S(=O)(=O)O)cc(S(=O)(=O)O)c(N)c4c3O)c(C)c2)ccc1/N=N/c1ccc2c(S(=O)(=O)O)cc(S(=O)(=O)O)c(N)c2c1O [EVANS BLUE FREE ACID]
GI50 [2]: > 100 µM (inactive)
GI50 [3]: > 100 µM (inactive)
GI50 [10]: > 100 µM (inactive)
GI50 [11]: > 100 µM (inactive)
GI50 [12]: > 100 µM (inactive)
GI50 [55]: > 100 µM
GI50 [13]: > 100 µM (inactive)
GI50 [16]: > 100 µM (inactive)
GI50 [18]: > 100 µM (inactive)
GI50 [19]: > 100 µM (inactive)
GI50 [24]: > 100 µM (inactive)
GI50 [59]: > 100 µM (inactive)
GI50 [57]: > 76.2 µM (inactive)
GI50 [27]: > 100 µM (inactive)
GI50 [28]: > 100 µM (inactive)
GI50 [29]: > 100 µM (inactive)
GI50 [60]: > 100 µM (inactive)
GI50 [30]: > 100 µM (inactive)
GI50 [31]: 59.2 µM (inactive)
GI50 [32]: > 100 µM (inactive)
GI50 [33]: > 100 µM (inactive)
GI50 [35]: > 95.5 µM (inactive)
GI50 [36]: > 100 µM (inactive)
GI50 [37]: > 100 µM (inactive)
GI50 [38]: > 100 µM (inactive)
GI50 [39]: > 100 µM (inactive)
GI50 [40]: > 100 µM (inactive)
GI50 [42]: > 100 µM (inactive)
GI50 [43]: > 100 µM (inactive)
GI50 [45]: 77.3 µM (inactive)
GI50 [46]: > 85.7 µM (inactive)
GI50 [47]: > 100 µM (inactive)
GI50 [49]: > 100 µM (inactive)
GI50 [50]: > 100 µM (inactive)
GI50 [52]: 62.7 µM (inactive)
GI50 [53]: > 77.3 µM (inactive)

C=C(C)[C@@H]1CC[C@]2(C)CC[C@]3(C)[C@H](CC[C@@H]4[C@@]5(C)CC[C@H](O)C(C)(C)[C@@H]5CC[C@]43C)[C@@H]12 [LUPEOL]
GI50 [1]: 37.2 µM (inactive)
GI50 [2]: 13.4 µM (inactive)
GI50 [3]: > 62.7 µM (inactive)
GI50 [4]: > 55.1 µM (inactive)
GI50 [61]: 15.6 µM (inactive)
GI50 [5]: > 81.1 µM (inactive)
GI50 [6]: 22.1 µM (inactive)
GI50 [7]: > 100 µM (inactive)
GI50 [8]: > 100 µM (inactive)
GI50 [9]: 65.8 µM (inactive)
GI50 [10]: > 100 µM (inactive)
GI50 [62]: > 100 µM (inactive)
GI50 [11]: 72.9 µM (inactive)
GI50 [12]: > 100 µM (inactive)
GI50 [54]: 44.5 µM (inactive)
GI50 [55]: > 70.1 µM
GI50 [13]: 47.4 µM (inactive)
GI50 [14]: > 58.3 µM (inactive)
GI50 [15]: 36.1 µM (inactive)
GI50 [16]: > 78.2 µM (inactive)
GI50 [63]: 25.6 µM (inactive)
GI50 [17]: > 54.7 µM (inactive)
GI50 [18]: > 46 µM (inactive)
GI50 [19]: > 100 µM (inactive)
GI50 [20]: > 67 µM (inactive)
GI50 [21]: 19.5 µM (inactive)
GI50 [22]: > 100 µM (inactive)
GI50 [23]: > 94.6 µM (inactive)
GI50 [24]: > 100 µM (inactive)
GI50 [59]: 21.7 µM (inactive)
GI50 [64]: 58.6 µM (inactive)
GI50 [65]: 19.4 µM (inactive)
GI50 [66]: 32.7 µM (inactive)
GI50 [25]: 27.5 µM (inactive)
GI50 [26]: > 89.3 µM (inactive)
GI50 [57]: > 50.4 µM (inactive)
GI50 [27]: 61.5 µM (inactive)
GI50 [28]: 45.7 µM (inactive)
GI50 [29]: 23.8 µM (inactive)
GI50 [60]: 26.7 µM (inactive)
GI50 [30]: > 55.1 µM (inactive)
GI50 [31]: > 100 µM (inactive)
GI50 [32]: > 100 µM (inactive)
GI50 [33]: 33.3 µM (inactive)
GI50 [67]: 32.3 µM (inactive)
GI50 [34]: 53.7 µM (inactive)
GI50 [35]: 14 µM (inactive)
GI50 [36]: > 55.7 µM (inactive)
GI50 [37]: > 50.8 µM (inactive)
GI50 [38]: > 88.7 µM (inactive)
GI50 [39]: > 65.2 µM (inactive)
GI50 [40]: > 100 µM (inactive)
GI50 [41]: > 74 µM (inactive)
GI50 [43]: 36.5 µM (inactive)
GI50 [44]: > 47.3 µM (inactive)
GI50 [45]: 38.2 µM (inactive)
GI50 [58]: 42.8 µM (inactive)
GI50 [47]: > 48.2 µM (inactive)
GI50 [68]: > 100 µM (inactive)
GI50 [48]: > 79.6 µM (inactive)
GI50 [49]: 21.9 µM (inactive)
GI50 [50]: > 42.7 µM (inactive)
GI50 [51]: > 100 µM (inactive)
GI50 [52]: > 47.8 µM (inactive)
GI50 [53]: > 100 µM (inactive)
